From patent US10975037B2 (priority 2018, dated 2021) come the findings set out here.

One may read the inhibition as the drop in the measured response relative to a control, in per cent. In general, IC50 refers to the concentration that gives 50% inhibition.

Where a name gives a salt, the structure may show the parent alone. Read-outs that look alike come from different tables or passages of the source.

The test deals with full-length human RORγt (Homo sapiens (Human), UniProt P51449). Description: RORγt (full-length human) reporter assay, conditions A or B, HEK293T cells. It counts as cell-based. To be noted: for inhibition at 1 µM: 1 μM compound concentration (footnote ***); for inhibition at 2 µM: 2 μM compound concentration. The procedure:
RORγt (Full-Length Human) Reporter Assay:
(§1) HEK293T cells were plated at 35,000 per well in 96-well plate in medium of DMEM with 10% FBS. […] After overnight (16 to 20 hours) incubation, media were removed and cells were lysed with 50 L Glo Lysis Buffer (Promega) for 10-15 minutes followed by 10 minute incubation with 50 μL Dual Glo reagent (Promega) at room temperature. Firefly luciferase luminescence was measured using a BMG Pherastar plate reader. To each well, 50 μL Stop and Glo reagent was added and incubated for 10 minutes at room temperature. Renilla luminescence was measured using a BMG Pherastar plate reader. To calculate the effect of compounds on RORγt activity, firefly values were normalized against values of DMSO only and values of reference compound at saturating concentration, then further normalized against Renilla signals. IC50s were generated by plotting final Renilla normalized data against compound concentration and percent inhibition was calculated against DMSO control.
as §1, with “at 8750 cells” for “at 35,000”, “in 384-well” for “in 96-well”, “with 20” for “with 50”, “well, 20” for “well, 50”

[1] abbreviates: HEK-293T, 3 μM compound concentration (footnote *), read-out: RORγt (FL) Reporter Assay A or B, % inhibition.
[2] abbreviates: HEK-293T, read-out: RORγt (FL) Reporter Assay A or B, % inhibition.

Chain of full-length human RORγt (P51449 other isoform, or with tags, fused parts or gaps): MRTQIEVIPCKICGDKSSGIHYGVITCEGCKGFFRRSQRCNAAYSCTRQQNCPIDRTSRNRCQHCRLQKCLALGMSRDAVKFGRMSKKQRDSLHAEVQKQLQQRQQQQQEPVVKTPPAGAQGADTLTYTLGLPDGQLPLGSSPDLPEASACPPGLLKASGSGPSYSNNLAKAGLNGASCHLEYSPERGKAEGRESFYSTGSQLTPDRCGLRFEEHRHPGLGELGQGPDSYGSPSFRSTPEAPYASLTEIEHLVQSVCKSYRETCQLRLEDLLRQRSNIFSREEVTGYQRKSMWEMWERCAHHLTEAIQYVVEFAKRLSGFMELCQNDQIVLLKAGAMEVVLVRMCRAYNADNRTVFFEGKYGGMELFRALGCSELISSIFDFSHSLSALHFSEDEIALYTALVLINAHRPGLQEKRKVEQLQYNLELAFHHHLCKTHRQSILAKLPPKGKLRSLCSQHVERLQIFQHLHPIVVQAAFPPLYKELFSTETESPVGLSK

As for `CCn1nc(C(=O)NC[C@]2(O)CC[C@@H](S(C)(=O)=O)CC2)c(Cl)c1-c1ccc([C@](C)(O)CCC(F)(F)F)cc1OC(F)F` (relative stereo) [Example 103, 4-Chloro-5-(2-(difluoromethoxy)-4-((R*)-5-trifluoro-2-hydroxypentan-2-yl)phenyl)-1-ethyl-N-(((1s,4S)-1-hydroxy-4-(methylsulfonyl)cyclohexyl)methyl)-1H-pyrazole-3-carboxamide], under setting [1], the inhibition at 3 µM was found to be 107%.

In the case of `CCn1nc(C(=O)NC[C@]2(O)CC[C@@H](S(C)(=O)=O)CC2)c(Cl)c1-c1ccc(C[C@H](C)C(F)(F)F)cc1OC` (single isomer, unassigned) [Example 37, 4-Chloro-1-ethyl-N-(((1s,4R)-1-hydroxy-4-(methylsulfonyl)cyclohexyl)methyl)-5-(2-methoxy-4-((S*)-3,3,3-trifluoro-2-methylpropyl)phenyl)-1H-pyrazole-3-carboxamide], the inhibition at 0.67 µM (HEK-293T, 0.67 μM compound concentration (footnote ****), read-out: RORγt (FL) Reporter Assay A or B, % inhibition) worked out at 97%.

Take `CCn1nc(C(=O)NC[C@]2(O)CC[C@@H](S(C)(=O)=O)CC2)c(Cl)c1-c1ccc([C@@](C)(O)CCC(F)(F)F)cc1OC(F)F` (single isomer, unassigned) [Example 102, 4-Chloro-5-(2-(difluoromethoxy)-4-((S*)-5,5,5-trifluoro-2-hydroxypentan-2-yl)phenyl)-1-ethyl-N-(((1s,4R)-1-hydroxy-4-(methylsulfonyl)cyclohexyl)methyl)-1H-pyrazole-3-carboxamide]: the inhibition at 3 µM under setting [1] was determined as 85%.

Turning to `CCn1nc(C(=O)NC[C@]2(O)CC[C@@H](S(C)(=O)=O)CC2)c(Cl)c1-c1ccc([C@H](O)C(C)(C)C(F)(F)F)cc1OC(F)F` (single isomer, unassigned) [Example 107, 4-Chloro-5-(2-(difluoromethoxy)-4-((S*)-3,3,3-trifluoro-1-hydroxy-2,2-dimethylpropyl)phenyl)-1-ethyl-N-(((1s,4R)-1-hydroxy-4-(methylsulfonyl)cyclohexyl)methyl)-1H-pyrazole-3-carboxamide], under setting [2], the inhibition at 3 µM came out at 104%.

Turning to `CCn1nc(C(=O)NC[C@]2(O)CC[C@@H](S(C)(=O)=O)CC2)c(Cl)c1-c1ccc([C@@H](O)C(C)(C)C(F)(F)F)cc1OC(F)F` (single isomer, unassigned) [Example 108, 4-Chloro-5-(2-(difluoromethoxy)-4-((R*)-3,3,3-trifluoro-1-hydroxy-2,2-dimethylpropyl)phenyl)-1-ethyl-N-(((1s,4S)-1-hydroxy-4-(methylsulfonyl)cyclohexyl)methyl)-1H-pyrazole-3-carboxamide], the inhibition at 3 µM under setting [1] is 92%.

For `CCn1nc(C(=O)NC[C@]2(O)CC[C@@H](S(C)(=O)=O)CC2)c(Cl)c1-c1ccc([C@H](O)C2(C(F)(F)F)CC2)cc1OC(F)F` (single isomer, unassigned) [Example 110, 4-Chloro-5-(2-(difluoromethoxy)-4-((S*)-hydroxy(1-(trifluoromethyl)cyclopropyl)methyl)phenyl)-1-ethyl-N-(((1s,4R)-1-hydroxy-4-(methylsulfonyl)cyclohexyl)methyl)-1H-pyrazole-3-carboxamide], under setting [2], the inhibition at 1 µM is 75%.

As to `CCn1nc(C(=O)NC[C@]2(O)CC[C@@H](S(C)(=O)=O)CC2)c(Cl)c1-c1ccc([C@@H](O)C2(C(F)(F)F)CC2)cc1OC(F)F` (single isomer, unassigned) [Example 111, 4-Chloro-5-(2-(difluoromethoxy)-4-((R*)-hydroxy(1-(trifluoromethyl)cyclopropyl)methyl)phenyl)-1-ethyl-N-(((1s,4S)-1-hydroxy-4-(methylsulfonyl)cyclohexyl)methyl)-1H-pyrazole-3-carboxamide], under setting [2], the inhibition at 1 µM amounted to 95%.

As for `CCn1nc(C(=O)NC[C@H]2CC[C@H](S(C)(=O)=O)CC2)c(Cl)c1-c1ccc(OC[C@@H]2CC2(F)F)cc1OC` (single isomer, unassigned) [Example 210, 4-Chloro-5-(4-(((S*)-2,2-difluorocyclopropyl)methoxy)-2-methoxyphenyl)-1-ethyl-N-(((1r,4R)-4-(methylsulfonyl)cyclohexyl)methyl)-1H-pyrazole-3-carboxamide], under setting [2], the inhibition at 2 µM worked out at 77%.

`CCn1nc(C(=O)NC[C@H]2CC[C@H](S(C)(=O)=O)CC2)c(Cl)c1-c1ccc(OCC2CC2(F)F)cc1OC` (single isomer, unassigned) [Example 211, 4-Chloro-5-(4-(((R*)-2,2-difluorocyclopropyl)methoxy)-2-methoxyphenyl)-1-ethyl-N-(((1r,4R)-4-(methylsulfonyl)cyclohexyl)methyl)-1H-pyrazole-3-carboxamide]: the inhibition at 2 µM under setting [2] is 66%.

In the case of `CCn1nc(C(=O)NC[C@]2(N)CC[C@H](S(C)(=O)=O)CC2)c(Cl)c1-c1ccc(CC(C)(C)C(F)(F)F)cc1OC(F)F` [Example 20, N-(((1r*,4r*)-1-Amino-4-(methylsulfonyl)cyclohexyl)methyl)-4-chloro-5-(2-(difluoromethoxy)-4-(3,3,3-trifluoro-2,2-dimethylpropyl)phenyl)-1-ethyl-1H-pyrazole-3-carboxamide 2,2,2-trifluoroacetic Acid Salt], under setting [1], the inhibition at 3 µM was 15%.

For `CCn1nc(C(=O)NC[C@]2(O)CC[C@@H](S(C)(=O)=O)CC2)c(Cl)c1-c1ccc(C[C@@H](C)C(F)(F)F)cc1OC` [Example 36, 4-Chloro-1-ethyl-N-(((1s,4S)-1-hydroxy-4-(methylsulfonyl)cyclohexyl)methyl)-5-(2-methoxy-4-((R)-3,3,3-trifluoro-2-methylpropyl)phenyl)-1H-pyrazole-3-carboxamide], under setting [2], the inhibition at 2 µM stood at 101%.

`CCn1nc(C(=O)NC[C@]2(O)CC[C@@H](S(C)(=O)=O)CC2)c(Cl)c1-c1ccc(CC(C)(C)C(F)(F)F)cc1OC` [Example 45, 4-Chloro-1-ethyl-N-(((1s,4s)-1-hydroxy-4-(methylsulfonyl)cyclohexyl)methyl)-5-(2-methoxy-4-(3,3,3-trifluoro-2,2-dimethylpropyl)phenyl)-1H-pyrazole-3-carboxamide]: under setting [2], the inhibition at 2 µM worked out at 88%.

Regarding `CCn1nc(C(=O)NC[C@]2(O)CC[C@@H](S(C)(=O)=O)CC2)c(Cl)c1-c1ccc(C(C)(O)CCC(F)(F)F)cc1OC(F)F` (stereo partly drawn) [Example 101, 4-Chloro-5-(2-(difluoromethoxy)-4-(5,5,5-trifluoro-2-hydroxypentan-2-yl)phenyl)-1-ethyl-N-(((1s,4s)-1-hydroxy-4-(methylsulfonyl)cyclohexyl)methyl)-1H-pyrazole-3-carboxamide], under setting [1], the inhibition at 3 µM was found to be 115%.

For `CCn1nc(C(=O)NC[C@]2(O)CC[C@@H](S(C)(=O)=O)CC2)c(Cl)c1-c1ccc(C(O)C(C)(C)C(F)(F)F)cc1OC(F)F` (stereo partly drawn) [Example 106, 4-Chloro-5-(2-(difluoromethoxy)-4-(3,3,3-trifluoro-1-hydroxy-2,2-dimethylpropyl)phenyl)-1-ethyl-N-(((1s,4s)-1-hydroxy-4-(methylsulfonyl)cyclohexyl)methyl)-1H-pyrazole-3-carboxamide], the inhibition at 1 µM under setting [2] was determined as 115%.

Take `CCn1nc(C(=O)NC[C@]2(O)CC[C@@H](S(C)(=O)=O)CC2)c(Cl)c1-c1ccc(C(O)C2(C(F)(F)F)CC2)cc1OC(F)F` (stereo partly drawn) [Example 109, 4-Chloro-5-(2-(difluoromethoxy)-4-(hydroxy(1-(trifluoromethyl)cyclopropyl)methyl)phenyl)-1-ethyl-N-(((1s,4s)-1-hydroxy-4-(methylsulfonyl)cyclohexyl)methyl)-1H-pyrazole-3-carboxamide]: the inhibition at 3 µM under setting [2] turned out to be 88%.

Turning to `CCOC(=O)[C@]1(CNC(=O)c2nn(CC)c(-c3ccc(CC(C)(C)C(F)(F)F)cc3OC(F)F)c2Cl)CC[C@H](S(C)(=O)=O)CC1` [Example 118, Ethyl (1s*,4s*)-1-((4-chloro-5-(2-(difluoromethoxy)-4-(3,3,3-trifluoro-2,2-dimethylpropyl)phenyl)-1-ethyl-1H-pyrazole-3-carboxamido)methyl)-4-(methylsulfonyl)cyclohexane-1-carboxylate], the inhibition at 2 µM under setting [2] is 103%. Also, for the setting “RORγt (FL) Reporter Assay A or B, IC50, HEK293T cells”, the IC50 was determined as 2.4 nM.

Regarding `CCn1nc(C(=O)NC[C@]2(O)CC[C@@H](S(C)(=O)=O)CC2)c(C)c1-c1ccc(C[C@@H](C)C(F)(F)F)cc1OC(F)F` [Example 142, 5-(2-(Difluoromethoxy)-4-((R)-3,3,3-trifluoro-2-methylpropyl)phenyl)-1-ethyl-N-(((1s,4S)-1-hydroxy-4-(methylsulfonyl)cyclohexyl)methyl)-4-methyl-1H-pyrazole-3-carboxamide], under “HEK-293T, 0.33 μM compound concentration (footnote *****), read-out: RORγt (FL) Reporter Assay A or B, % inhibition”, the inhibition at […] amounted to 87%.
